Among the data in patent publication US20260297080A1, “BICYCLIC COMPOUNDS AS CDK INHIBITORS” (BeOne Medicines I GmbH, priority 2022, published 2026) are IC50 values, retold here.

For assay [1], the target named is CDK1/Cyclin B1 (Homo sapiens, UniProt P06493). The assay is described as follows: CDK1/Cyclin B1 Biochemical Assay (TR-FRET), 0.015 mM ATP. As to conditions: 0.15 μM Rb (Ser780)-biotin substrate, pH7.0, 60 min preincubation, 120 min reaction, room temperature. Summed up: (§1)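 TR-FRET assay with 0.15 μM Rb (Ser780)-biotin substrate and 0-10 μM compound in 50 mM HEPES pH7.0, 50 mM MgCl2, 1 mM DTT. ATP was 0.060 mM for CDK2/Cyclin E1 and 0.015 mM for CDK1/Cyclin B1. Kinase was preincubated with compound 60 min, reacted 120 min at room temperature, and IC50 was fitted (four-parameter) from the 665/620 nm ratio.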
Background: Time-resolved FRET reads energy transfer from a long-lived donor to a nearby acceptor.

The target in assay [2] is CDK2/Cyclin E1 (Homo sapiens, UniProt P24941). Briefly: CDK2/Cyclin E1 Biochemical Assay (TR-FRET), 0.060 mM ATP. The conditions noted are these: 0.15 μM Rb (Ser780)-biotin substrate, pH7.0, 60 min preincubation, 120 min reaction, room temperature. The method in brief: as §1

Bounds are passed on as bounds.

Chain of CDK1/Cyclin B1 (P06493 whole entry): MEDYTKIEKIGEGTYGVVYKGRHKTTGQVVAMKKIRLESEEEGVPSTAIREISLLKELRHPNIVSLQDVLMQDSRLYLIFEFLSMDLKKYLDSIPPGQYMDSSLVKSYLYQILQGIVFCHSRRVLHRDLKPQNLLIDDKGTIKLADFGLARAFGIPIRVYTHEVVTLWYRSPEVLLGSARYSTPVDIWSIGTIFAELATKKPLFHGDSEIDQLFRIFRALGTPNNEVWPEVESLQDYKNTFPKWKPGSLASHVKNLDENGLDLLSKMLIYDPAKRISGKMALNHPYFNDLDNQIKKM
Chain of CDK1/Cyclin B1 (P14635 whole entry partner): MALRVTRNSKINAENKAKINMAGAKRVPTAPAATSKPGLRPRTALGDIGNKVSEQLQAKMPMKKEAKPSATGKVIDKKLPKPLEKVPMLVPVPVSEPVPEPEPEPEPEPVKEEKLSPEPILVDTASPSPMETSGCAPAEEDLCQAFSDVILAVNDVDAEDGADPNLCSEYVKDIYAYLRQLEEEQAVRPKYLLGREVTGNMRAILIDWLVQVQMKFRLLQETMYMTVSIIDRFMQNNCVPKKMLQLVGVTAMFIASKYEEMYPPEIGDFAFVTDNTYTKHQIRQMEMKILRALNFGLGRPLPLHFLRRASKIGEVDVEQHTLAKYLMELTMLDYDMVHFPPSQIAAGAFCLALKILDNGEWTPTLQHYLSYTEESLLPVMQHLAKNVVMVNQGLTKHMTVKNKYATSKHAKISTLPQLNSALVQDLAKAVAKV

Broadly, the IC50 is the concentration needed to halve the response being measured. A lower IC50 goes with higher potency. As for `CC(C)NC(=O)O[C@H]1CC[C@@H](c2cc(Nc3cc(F)c4c(c3)CS(=O)(=O)N4C3COC3)n[nH]2)C1` (relative stereo) [Example 283, cis-3-(3-((7-fluoro-1-(oxetan-3-yl)-2,2-dioxido-1,3-dihydrobenzo[c]isothiazol-5-yl)amino)-1H-pyrazol-5-yl)cyclopentyl isopropylcarbamate], the results for the IC50 in assay [1] and in assay [2] were 56 nM and 3 nM, respectively.

Turning to `CC(C)NC(=O)O[C@H]1CC[C@@H](c2cc(Nc3cnc4c(c3)CN(C)S4(=O)=O)n[nH]2)C1` (relative stereo) [Example 32, cis-3-(3-((2-methyl-1,1-dioxido-2,3-dihydroisothiazolo[5,4-b]pyridin-5-yl)amino)-1H-pyrazol-5-yl)cyclopentyl isopropylcarbamate], the IC50 amounted to 424 nM in assay [1] and 21 nM in assay [2].

As to `CC(C)NC(=O)O[C@H]1CC[C@@H](c2cc(Nc3ccc4c(c3)CN(C)S4(=O)=O)n[nH]2)C1` (relative stereo) [Example 11, cis-3-(3-((2-methyl-1,1-dioxido-2,3-dihydrobenzo[d]isothiazol-5-yl)amino)-1H-pyrazol-5-yl)cyclopentyl isopropylcarbamate], the IC50 in assay [1] turned out to be 140 nM; in assay [2], 4.1 nM.

With `CCCNC(=O)O[C@H]1CC[C@@H](c2cc(Nc3ccc4c(c3F)CS(=O)(=O)N4CC(F)(F)F)n[nH]2)C1` [Example 266b], the IC50 in assay [1] turned out to be 59 nM; in assay [2] it was 3.5 nM.

With `[2H]C([2H])([2H])N1Cc2c(ccc(Nc3cc([C@@H]4CC[C@H](OC(=O)NCCC)C4)[nH]n3)c2F)S1(=O)=O` (relative stereo) [Example 130, cis-3-(3-((4-fluoro-2-(methyl-d3)-1,1-dioxido-2,3-dihydrobenzo[d]isothiazol-5-yl)amino)-1H-pyrazol-5-yl)cyclopentyl propylcarbamate], the values for the IC50 in assay [1] and in assay [2] were 241 nM and 5.7 nM, respectively.

As to `CN1c2ccc(Nc3cc([C@@H]4CC[C@H](OC(=O)NC5(C)COC5)C4)[nH]n3)cc2CS1(=O)=O` (relative stereo) [Example 234, cis-3-(3-((1-methyl-2,2-dioxido-1,3-dihydrobenzo[c]isothiazol-5-yl)amino)-1H-pyrazol-5-yl)cyclopentyl(3-methyloxetan-3-yl)carbamate], the IC50 in assay [1] came out at 67 nM; in assay [2], 4.2 nM.

For the compound `COCC1(NC(=O)O[C@H]2CC[C@@H](c3cc(Nc4ccc5c(c4F)CNS5(=O)=O)n[nH]3)C2)CC1` (single isomer, unassigned) [Example 158b, cis-3-(3-((4-fluoro-1,1-dioxido-2,3-dihydrobenzo[d]isothiazol-5-yl)amino)-1H-pyrazol-5-yl)cyclopentyl(1-(methoxymethyl)cyclopropyl)carbamate], the IC50 in assay [1] is 248 nM; in assay [2], 3.3 nM.

For the compound `CCCNC(=O)O[C@H]1CC[C@@H](c2cc(Nc3ccc4c(c3)CS(=O)(=O)N4C)n[nH]2)C1` (relative stereo) [Example 221, cis-3-(3-((1-methyl-2,2-dioxido-1,3-dihydrobenzo[c]isothiazol-5-yl)amino)-1H-pyrazol-5-yl)cyclopentyl propylcarbamate], the IC50 in assay [1] turned out to be 49 nM; in assay [2], 8.6 nM.

On to `CC(C)NC(=O)O[C@H]1CC[C@@H](c2cc(Nc3ccc4c(c3Cl)CNS4(=O)=O)n[nH]2)C1` (single isomer, unassigned) [Example 38b, cis-3-(3-((4-chloro-1,1-dioxido-2,3-dihydrobenzo[d]isothiazol-5-yl)amino)-1H-pyrazol-5-yl)cyclopentyl isopropylcarbamate], for which the IC50 in assay [1] was found to be 279 nM; in assay [2] it was 13 nM.

Turning to `CC1(NC(=O)O[C@H]2CC[C@@H](c3cc(Nc4ccc5c(c4F)CS(=O)(=O)N5CC(F)(F)F)n[nH]3)C2)CCOC1` (relative stereo) [Example 407, cis-3-(3-((4-fluoro-2,2-dioxido-1-(2,2,2-trifluoroethyl)-1,3-dihydrobenzo[c]isothiazol-5-yl)amino)-1H-pyrazol-5-yl)cyclopentyl(3-methyltetrahydrofuran-3-yl)carbamate], the values for the IC50 in assay [1] and in assay [2] were 129 nM and 1.6 nM, respectively.

With `COCC(C)(C)NC(=O)O[C@H]1CC[C@@H](c2cc(Nc3ccc4c(c3F)CNS4(=O)=O)n[nH]2)C1` (relative stereo) [Example 364, cis-3-(3-((4-fluoro-1,1-dioxido-2,3-dihydrobenzo[d]isothiazol-5-yl)amino)-1H-pyrazol-5-yl)cyclopentyl(1-methoxy-2-methylpropan-2-yl)carbamate], the IC50 in assay [1] stood at 102 nM; in assay [2], 1.6 nM.

As to `CC(C)NC(=O)O[C@H]1CC[C@@H](c2cc(Nc3ccc4c(c3Cl)CNS4(=O)=O)n[nH]2)C1` (single isomer, unassigned) [Example 38a, cis-3-(3-((4-chloro-1,1-dioxido-2,3-dihydrobenzo[d]isothiazol-5-yl)amino)-1H-pyrazol-5-yl)cyclopentyl isopropylcarbamate], the IC50 came out at 1500 nM in assay [1] and 38 nM in assay [2].

With `CN1c2ccc(Nc3cc([C@@H]4CC[C@H](OC(=O)N[C@H]5CC[C@@H](O)CC5)C4)[nH]n3)cc2CS1(=O)=O` (relative stereo) [Example 341, cis-3-(3-((1-methyl-2,2-dioxido-1,3-dihydrobenzo[c]isothiazol-5-yl)amino)-1H-pyrazol-5-yl)cyclopentyl((1s,4s)-4-hydroxycyclohexyl)carbamate], the IC50 in assay [1] is 77 nM; in assay [2], 4.7 nM.

As to `CC(C)NC(=O)O[C@@H]1CC[C@H](c2cc(Nc3ccc4c(c3)CS(=O)(=O)N4)n[nH]2)C1` (single isomer, unassigned) [Example 7a], the IC50 was 28 nM in assay [1] and 0.9 nM in assay [2].

On to `CC[C@H](C)NC(=O)O[C@H]1CC[C@@H](c2cc(Nc3cc4c(cc3F)NS(=O)(=O)C4)n[nH]2)C1` (relative stereo) [Example 294, cis-3-(3-((6-fluoro-2,2-dioxido-1,3-dihydrobenzo[c]isothiazol-5-yl)amino)-1H-pyrazol-5-yl)cyclopentyl((S)-sec-butyl)carbamate], for which the IC50 turned out to be 359 nM in assay [1] and 15 nM in assay [2].

`CC(C)NC(=O)O[C@H]1CC[C@@H](c2cc(Nc3ccc4c(c3F)CN(CC3CCCCC3)S4(=O)=O)n[nH]2)C1` (relative stereo) [Example 108, cis-3-(3-((2-(cyclohexylmethyl)-4-fluoro-1,1-dioxido-2,3-dihydrobenzo[d]isothiazol-5-yl)amino)-1H-pyrazol-5-yl)cyclopentyl isopropylcarbamate]: the figures for the IC50 in assay [1] and in assay [2] were over 10000 nM and 37 nM, respectively.

Consider `CC(=O)N1CCC(N2Cc3c(ccc(Nc4cc([C@@H]5CC[C@H](OC(=O)NC(C)C)C5)[nH]n4)c3F)S2(=O)=O)C1` (relative stereo) [Example 80, cis-3-(3-((2-(1-acetylpyrrolidin-3-yl)-4-fluoro-1,1-dioxido-2,3-dihydrobenzo[d]isothiazol-5-yl)amino)-1H-pyrazol-5-yl)cyclopentyl isopropylcarbamate], for which the IC50 in assay [1] amounted to 767 nM; in assay [2], 10 nM.

Turning to `CC1(NC(=O)O[C@H]2CC[C@@H](c3cc(Nc4ccc5c(c4)CS(=O)(=O)N5)n[nH]3)C2)CCOC1` (relative stereo) [Example 392, cis-3-(3-((2,2-dioxido-1,3-dihydrobenzo[c]isothiazol-5-yl)amino)-1H-pyrazol-5-yl)cyclopentyl(3-methyltetrahydrofuran-3-yl)carbamate], the IC50 in assay [1] came to 10 nM; in assay [2], 1.1 nM.

In the case of `CC(C)(C)NC(=O)O[C@H]1CC[C@@H](c2cc(Nc3ccc4c(c3)CS(=O)(=O)N4)n[nH]2)C1` [Example 403b], the IC50 amounted to 7.3 nM in assay [1] and 1.1 nM in assay [2].

Consider `CC(C)NC(=O)O[C@H]1CC[C@@H](c2cc(Nc3ccc4c(c3F)CN(C3CN(Cc5ccccc5)C3)S4(=O)=O)n[nH]2)C1` (relative stereo) [Example 92, cis-3-(3-((2-(1-benzylazetidin-3-yl)-4-fluoro-1,1-dioxido-2,3-dihydrobenzo[d]isothiazol-5-yl)amino)-1H-pyrazol-5-yl)cyclopentyl isopropylcarbamate], for which the IC50 turned out to be 1550 nM in assay [1] and 36 nM in assay [2].

Take `CC(C)NC(=O)O[C@H]1CC[C@@H](c2cc(Nc3ccc4c(c3O)CNS4(=O)=O)n[nH]2)C1` (relative stereo) [Example 405, cis-3-(3-((4-hydroxy-1,1-dioxido-2,3-dihydrobenzo[d]isothiazol-5-yl)amino)-1H-pyrazol-5-yl)cyclopentyl isopropylcarbamate]: the results for the IC50 in assay [1] and in assay [2] were 644 nM and 10 nM, respectively.

For `CC(C)NC(=O)O[C@H]1CC[C@@H](c2cc(Nc3cc(Cl)c4c(c3)S(=O)(=O)NC4)n[nH]2)C1` (relative stereo) [Example 184, cis-3-(3-((4-chloro-1,1-dioxido-2,3-dihydrobenzo[d]isothiazol-6-yl)amino)-1H-pyrazol-5-yl)cyclopentyl isopropylcarbamate], the IC50 in assay [1] came to 4.1 nM; in assay [2], 1.5 nM.

`CN1c2ccc(Nc3cc([C@@H]4CC[C@H](OC(=O)NC5(C)CC5)C4)[nH]n3)cc2CS1(=O)=O` (relative stereo) [Example 223, cis-3-(3-((1-methyl-2,2-dioxido-1,3-dihydrobenzo[c]isothiazol-5-yl)amino)-1H-pyrazol-5-yl)cyclopentyl(1-methylcyclopropyl)carbamate]: the results for the IC50 in assay [1] and in assay [2] were 35 nM and 5.5 nM, respectively.

As to `CC[C@H](C)NC(=O)O[C@H]1CC[C@@H](c2cc(Nc3ccc4c(c3F)C(C)NS4(=O)=O)n[nH]2)C1` (single isomer, unassigned) [Example 54b], the results for the IC50 in assay [1] and in assay [2] were 564 nM and 2.7 nM, respectively.
